PubChem BioAssay AID504484 (Southern Research Specialized Biocontainment Screening …, 2011)

System: human PBMC HIV-1 replication, RT activity in supernatant
Assay: antiviral activity against X4-tropic HIV-1 in PBMC – cell-based, CXCR4-tropic HIV-1, primary PBMCs, dose response (AID 504484)

Structure (SMILES) | IC50 [µM]
Cc1c2c(=O)n(-c3nc4ccccc4s3)nc-2cc(O)n1CCC(C)C | 5.68
Cc1c2c(=O)n(-c3nc4ccccc4s3)nc-2cc(O)n1CCc1cccs1 | 28.7
Cc1c2c(=O)n(-c3nc4ccccc4s3)nc-2cc(O)n1Cc1cccnc1 | 2.86
Cc1c2c(=O)n(-c3nc4ccccc4s3)nc-2cc(O)n1Cc1ccncc1 | 1.81
COc1ccccc1Cn1c(O)cc2nn(-c3nc4ccccc4s3)c(=O)c-2c1C | 4.42
Cc1c2c(=O)n(-c3nc4ccccc4s3)nc-2cc(O)n1C1CC1 | 3.35
Cc1c2c(=O)n(-c3nc4ccccc4s3)nc-2cc(O)n1Cc1ccc(F)cc1 | 7.48
Cc1c2c(=O)n(-c3nc4ccccc4s3)nc-2cc(O)n1Cc1cccs1 | 11.5
COc1ccc(CCn2c(O)cc3nn(-c4nc5ccccc5s4)c(=O)c-3c2C)cc1 | 5.45
COc1ccc(Cn2c(O)cc3nn(-c4nc5ccccc5s4)c(=O)c-3c2C)cc1 | 7.71
Cc1c2c(=O)n(-c3nc4ccccc4s3)nc-2cc(O)n1CCc1ccc(O)cc1 | 1.32
Cc1c2c(=O)n(-c3nc4ccccc4s3)nc-2cc(O)n1Cc1ccccc1Cl | 7.44
